How the values were obtained:
Assay in all cases: Antifungal Test (agar dilution M.I.C.)
Type in all cases: cell-based
Conditions in all cases: Table 2; 37° C., 3 days (72 hours)
[1] = tested on: Candida albicans Yu-1200 IFM 4020
Protocol: (§1) Respective agar plates were prepared by dissolving compounds under test in aseptic water to make a two fold dilution series, taking each 1 milliliter of said diluted solutions and 9 ml of Sabouraud medium into a petri dish, and sufficiently admixing the same.
(§2) On the other hand, an inoculum was prepared by cultivating an examined fungus (microorganism) on the Sabouraud slant medium and suspending two loopful of the incubated fungus in 10 ml of sterilized physiological saline water.
(§3) One loopful of the inoculum was streaked on the above-mentioned agar plate. After the agar plate was incubated at a defined temperature for a predetermined period of time to determine the minimal inhibitory concentration (M.I.C.).
(§4) Incubation temperature:
(§5) Incubation time: 3 days (72 hours) and
(§6) Incubation time: 3 days (72 hours)
(§7) activity incubation conditions:
(§8) Incubation time 3 days (72 hours)
(§9) Incubation time 7 days (168 hours)
(§10) Incubation time 2 days (48 hours)

[2] = tested on: Candida albicans NAKAGAWA IFM 4017
Protocol: as §1, §2, §3, §4, §5, §6, §7, §8, §9, §10

[3] = tested on: Candida albicans AHU 3656
Protocol: as §1, §2, §3, §4, §5, §6, §7, §8, §9, §10

Measured: M.I.C.

C[C@@H]1[C@H](O)[C@@H](C)/C=C/C=C/CC/C=C/C=C/C=C/C=C/C(O[C@H]2O[C@H](C)[C@@H](O)[C@H](N)[C@@H]2O)CC2O[C@](O)(CC(O)C(O)CCC(O)CC(O)CC(O)CC(=O)O[C@H]1C)CC(O)C2C(=O)O (stereo partly drawn) [Nystatin, reference compound]
6.25 µg/mL: all assays above
